Key:
[1] = system: optimized anaerobic microbial mix; assay: Test 2: comparison of fermentations in the presence or absence of heptanoic acid; type: cell-based; conditions: grass cuttings/mowings 25 g/l dry matter, 38° C., 160 h, initial addition of 2.8 g/l
Method: Two fermentations of grass cuttings/mowings in non-sterile mode, at a concentration of 25 g/l of dry matter, in an anaerobic bioreactor with a working volume of 2 l, operated in mesophilic mode (38° C.), were carried out in parallel for 160 h. In the first experiment, after inoculation of an optimized anaerobic microbial mix, an initial addition of heptanoic acid in an amount of 2.8 g/l was carried out. This presence of heptanoic acid makes it possible to understand the biocompatible nature of an extraction carried out with this type of solvent. Indeed, the culture medium after extraction is reintroduced into the bioreactor and may contain traces of extraction solvent up to the amount of their solubility threshold. The second fermentation, which is de facto a control culture, was carried out in parallel under the same conditions except for the addition of heptanoic acid.
During these fermentations, liquid-phase and gas-phase metabolite monitorings were carried out. At the end of fermentation, the yields obtained regarding the production of volatile fatty acids is 0.33 g of VFA/g of dry matter in the case of the experiment with the addition of heptanoic acid, and 0.39 g of VFA/g of dry matter for the control fermentation. […]

[2] = system: optimized anaerobic microbial mix; assay: Test 3: comparison of fermentation in the presence or absence of octanoic acid; type: cell-based; conditions: restoration waste 50 g/l dry matter, initial addition of 0.7 g/l
Method: Two fermentations of grass cuttings/mowings in non-sterile mode, at a concentration of 25 g/l of dry matter, in an anaerobic bioreactor with a working volume of 2 l, operated in mesophilic mode (38° C.), were carried out in parallel for 160 h. In the first experiment, after inoculation of an optimized anaerobic microbial mix, an initial addition of heptanoic acid in an amount of 2.8 g/l was carried out. […] The second fermentation, which is de facto a control culture, was carried out in parallel under the same conditions except for the addition of heptanoic acid.

SMILES | negative effect on the production of volatile fatty acids versus control fermentation [1] | yield of production of volatile fatty acids at the end of fermentation [1] | yield of production of volatile fatty acids at the end of fermentation [2]
CCCCCCC(=O)O [heptanoic acid, Heptanoic acid] | about 15% | 0.33 g of VFA/g of dry matter | 
CCCCCCCC(=O)O [octanoic acid, Octanoic acid] |  |  | 0.3 g of VFA/g of dry matter

Source: patent US11149230B2, “Process for extracting carboxylic acids produced by anaerobic fermentation from fermentable biomass” (AFYREN, priority 2015, dated 2021)
